# Measured values reported in patent US9757378B2, “Methods to modulate acute myeloid leukemia stem/progenitor cell expansion and/or differentiation” (UNIVERSITE DE MONTREAL, priority 2013, dated 2017).
# Tested on: primary human AML cells
# Assay: Primary screen: differentiation of primary human AML cells in vitro (CD34/CD15, HTS flow cytometry)
# Conditions: for percent gated cells (viability): 2 μM (commercial libraries) or 1 μg/ml (IRIC); for % increase CD34+ (%) / % increase CD34+ (cell counts) / % increase CD34+CD15− (cell counts): compared to DMSO; for % increase CD34+CD15− (%): compared to DMSO ((compound − DMSO)/DMSO*100)
SMILES,percent gated cells (viability),% increase CD34+ (%),% increase CD34+ (cell counts),% increase CD34+CD15− (cell counts),% increase CD34+CD15− (%),CD34+CD15− cell counts compared to DMSO (in words)
"Cc1cc(=O)oc2cc(O)c(O)cc12 [UM0120835, 4-Methylesculetin]",84.90%,22.85%,18.23%,104.34%,111.64%,
"COc1cc(OC)c2c(=O)c(-c3ccc4c(c3)OCO4)coc2c1 [UM0121218, Derrustone]",83.90%,21.91%,25.53%,58.63%,53.68%,
"COc1ccc(-c2cc(=O)c3c(OC(C)=O)cc(OC(C)=O)cc3o2)cc1 [UM0120987, Acacetin diacetate]",81.60%,27.58%,22.16%,53.47%,59.88%,
"COC(=O)/C(C)=C\CC12OC(C)(C)C3CC(C=C4C(=O)c5c(OC)c6c(c(CC=C(C)C)c5OC431)OC(C)(CCC=C(C)C)C=C6)C2=O (stereo not shown) [UM0120889, Dimethyl gambogate]",,47.72%,−50.44%,−48.79%,52.62%,
"CC(=O)c1ccc2c(c1)N(CCCN(C)C)c1ccccc1S2.O=C(O)/C=C\C(=O)O [UM0118758, Acetopromazine maleate salt]",,−0.82%,−11.68%,41.15%,57.85%,
"COc1cc(-c2ccc(N=Nc3ccc4c(S(=O)(=O)[O-])cc(S(=O)(=O)[O-])c(N)c4c3O)c(OC)c2)ccc1N=Nc1ccc2c(S(=O)(=O)[O-])cc(S(=O)(=O)[O-])c(N)c2c1O.[Na+].[Na+].[Na+].[Na+] [UM0118703, Chicago sky blue 6B]",,42.39%,31.67%,42.76%,54.52%,
"CC(C)Oc1ccc2c(=O)c(-c3ccccc3)coc2c1 [UM0120559, Ipriflavone]",,27.34%,39.89%,54.50%,40.47%,
"CC(C)=CCOc1cc2oc(=O)ccc2cc1O [UM0120947, Prenyletin]",81.10%,18.10%,15.58%,56.71%,60.33%,
"CCOC(=O)c1c(C)cc(O)c(C)c1O [UM0120789, Methylorsellinic acid ethyl ester]",84.00%,22.49%,22.38%,52.88%,52.70%,
"CC(C)=CCc1c(O)cc2oc(C)cc(=O)c2c1O [UM0121217, Peucenin]",83.20%,23.46%,37.27%,94.61%,74.92%,
"C[C@@H]1O[C@@H](O[C@H]2[C@H](Oc3cc(O)c4c(=O)c(O)c(-c5ccc(O)cc5)oc4c3)O[C@H](CO)[C@@H](O)[C@@H]2O)[C@H](O)[C@H](O)[C@H]1O [UM0119289, Kaempferol-7-Neohesperidoside]",,12.75%,29.49%,72.47%,50.39%,
"COc1ccc(-c2cc(=O)c3ccc(O)cc3o2)cc1 [UM0117304, Pratol]",82.40%,50.40%,31.59%,47.36%,68.85%,
"COc1ccc(-c2cc(=O)c3ccccc3o2)cc1 [UM0070201, 4′-Methoxyflavone]",78.10%,28.71%,20.27%,58.22%,69.03%,
"COc1cc(OC)c2c(=O)cc(-c3ccccc3)oc2c1 [UM0121173, 5,7-Dimethoxyflavone]",82.00%,29.43%,34.90%,53.11%,46.97%,
"C[C@]12CCC(=O)C=C1CC[C@@H]1[C@@H]2CC[C@]2(C)C(=O)CC[C@@H]12 [UM0119559, 4-Androstene-3,17-dione]",82.30%,1.57%,−20.76%,20.14%,53.81%,
"N[C@@H]1C[C@H]1c1ccccc1.N[C@H]1C[C@@H]1c1ccccc1.O=S(=O)(O)O [UM0121497, Tranylcypromine sulfate]",76.50%,20.22%,−15.83%,19.65%,70.66%,
Nc1ccccc1C(=O)CC(N)C(=O)O (stereo not shown) [Kynurenine],,,,,,further reduced
"OC[C@@H]1CCCN2CCCC[C@H]12 [UM0119416, Lupinine]",,10.12%,30.63%,51.77%,28.13%,
"Oc1ccc(C=Cc2cc(O)cc(O)c2)cc1 [UM0118532, Resveratrol]",78.00%,22.62%,−14.19%,12.57%,60.46%,
"CO[C@@H]1[C@H](OC(=O)/C=C/C=C/C=C/C=C/C(=O)O)CC[C@]2(CO2)[C@H]1[C@@]1(C)O[C@@H]1CC=C(C)C [UM0121512, Fumagillin]",78.60%,31.22%,−54.59%,−46.09%,55.51%,
"O=c1c2ccccc2oc2ccc(O)cc12 [UM0121186, 2-Hydroxyxanthone]",82.40%,48.93%,48.11%,65.21%,66.25%,
"NC(=Nc1ccccc1)NC(=O)c1nc(Cl)c(N)nc1N [UM0120143, Phenamil methanesulfonate]",84.10%,30.88%,28.04%,54.83%,58.21%,
"COc1ccc2c(c1)[nH]c1c(C)nccc12.Cl [UM0118303, Harmine hydrochloride]",78.60%,8.79%,−17.08%,38.52%,81.33%,
"O=c1cc(-c2ccc(O)c(O)c2)oc2cc(O)cc(O)c12 [UM0118175, Luteolin]",79.80%,40.48%,4.97%,27.50%,70.76%,
"CCOC(=O)c1oc2c(OC)c(O)cc(O)c2c(=O)c1-c1cc(OC)c(OC)c(OC)c1 [UM0121233, 2-Ethoxycarbonyl-5,7-dihydroxy-8,3′,4′,5′-tetramethoxyisoflavone]",86.30%,15.01%,18.21%,50.24%,45.77%,
"O.O.O=c1c(O)c(-c2ccc(O)c(O)c2)oc2cc(O)cc(O)c12 [UM0118473, Quercetine dihydrate]",,15.71%,6.69%,69.64%,83.29%,
"COc1cc2c(cc1O)C[C@H]1c3c(cc(O)c(OC)c3-2)CCN1C [UM0118103, Boldine]",87.00%,−3.69%,10.21%,50.97%,31.10%,
